Tested on: 439559-082-T-J2-PDC spheroid viability
Experiment: Anticancer human tumor 439559-082-T-J2-PDC patient-derived colon adenocarcinoma cell line growth inhibition [POLQ]
Settings: spheroids with HUVEC and MSC; for IC50: curve of first compound; for viability, T/C: stronger effect = lower value
Summary of the method: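 Growth inhibition in 3D: complex spheroids (tumor PDC, HUVEC, MSC) treated with POLQ inhibitor combinations; where Cmax unknown, highest tested concentration 10 microM, except SN-38 at 1 microM.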

[1] = second compound 0.0316 µM, first compound 0.0316 µM
[2] = second compound 0.0316 µM, first compound 0.1 µM
[3] = second compound 0.0316 µM, first compound 0.316 µM
[4] = second compound 0.0316 µM, first compound 1 µM
[5] = second compound 0.1 µM, first compound 0.0316 µM
[6] = second compound 0.1 µM, first compound 0.1 µM
[7] = second compound 0.1 µM, first compound 0.316 µM
[8] = second compound 0.1 µM, first compound 1 µM
[9] = second compound 0.316 µM, first compound 0.0316 µM
[10] = second compound 0.316 µM, first compound 0.1 µM
[11] = second compound 0.316 µM, first compound 0.316 µM
[12] = second compound 0.316 µM, first compound 1 µM
[13] = second compound 1 µM, first compound 0.0316 µM
[14] = second compound 1 µM, first compound 0.1 µM
[15] = second compound 1 µM, first compound 0.316 µM
[16] = second compound 1 µM, first compound 1 µM
[17] = second compound 3.16 µM, first compound 0.0316 µM
[18] = second compound 3.16 µM, first compound 0.1 µM
[19] = second compound 3.16 µM, first compound 0.316 µM
[20] = second compound 3.16 µM, first compound 1 µM
[21] = second compound 10 µM, first compound 0.0316 µM
[22] = second compound 10 µM, first compound 0.1 µM
[23] = second compound 10 µM, first compound 0.316 µM
[24] = second compound 10 µM, first compound 1 µM
[25] = second compound 0.0316 µM, first compound 0.00316 µM
[26] = second compound 0.0316 µM, first compound 0.01 µM
[27] = second compound 0.1 µM, first compound 0.00316 µM
[28] = second compound 0.1 µM, first compound 0.01 µM
[29] = second compound 0.316 µM, first compound 0.00316 µM
[30] = second compound 0.316 µM, first compound 0.01 µM
[31] = second compound 1 µM, first compound 0.00316 µM
[32] = second compound 1 µM, first compound 0.01 µM
[33] = second compound 3.16 µM, first compound 0.00316 µM
[34] = second compound 3.16 µM, first compound 0.01 µM
[35] = second compound 10 µM, first compound 0.00316 µM
[36] = second compound 10 µM, first compound 0.01 µM
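Further: spheroids exposed to compounds for seven days before readout.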
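Wherever viability, T/C is given: 100% = DMSO vehicle control viability.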

CCCS(=O)(=O)Nc1ccc(F)c(C(=O)c2c[nH]c3ncc(-c4ccc(Cl)cc4)cc23)c1F + COC1C(OC(N)=O)C(O)C(Oc2ccc3c(O)c(NC(=O)c4ccc(O)c(CC=C(C)C)c4)c(=O)oc3c2C)OC1(C)C was tested, and the IC50 (second compound 0.0316 µM) was over 10000 nM, the IC50 (second compound 0.1 µM) was over 10000 nM and the IC50 (second compound 0.316 µM) was over 10000 nM. The IC50 (second compound 1 µM) was over 10000 nM, the IC50 (second compound 3.16 µM) was over 10000 nM and the IC50 (second compound 10 µM) was over 10000 nM. It also gave a viability, T/C [1] of 103%, a viability, T/C [2] of 109% and a viability, T/C [3] of 96.6%. The viability, T/C [4] was 95.8%, the viability, T/C (second compound 0.0316 µM, first compound 3.16 µM) was 99.7% and the viability, T/C (second compound 0.0316 µM, first compound 10 µM) was 70%. It also gave a viability, T/C [5] of 108%, a viability, T/C [6] of 107% and a viability, T/C [7] of 99.9%. The viability, T/C [8] was 102%, the viability, T/C (second compound 0.1 µM, first compound 3.16 µM) was 100% and the viability, T/C (second compound 0.1 µM, first compound 10 µM) was 67.9%. For the same molecule, the viability, T/C [9] was 104%, the viability, T/C [10] was 106% and the viability, T/C [11] was 101%. The viability, T/C [12] was 92.9%, the viability, T/C (second compound 0.316 µM, first compound 3.16 µM) was 94.2% and the viability, T/C (second compound 0.316 µM, first compound 10 µM) was 65.8%. The viability, T/C [13] was 99.2%, the viability, T/C [14] was 104% and the viability, T/C [15] was 102%. The viability, T/C [16] was 103%, the viability, T/C (second compound 1 µM, first compound 3.16 µM) was 105% and the viability, T/C (second compound 1 µM, first compound 10 µM) was 68.4%. The viability, T/C [17] was 93.7%, the viability, T/C [18] was 103% and the viability, T/C [19] was 94.3%. The viability, T/C [20] was 95.4%, the viability, T/C (second compound 3.16 µM, first compound 3.16 µM) was 93.1% and the viability, T/C (second compound 3.16 µM, first compound 10 µM) was 67.9%. It also gave a viability, T/C [21] of 103%, a viability, T/C [22] of 95.2% and a viability, T/C [23] of 100%. For the same molecule, the viability, T/C [24] was 99.2%, the viability, T/C (second compound 10 µM, first compound 3.16 µM) was 98.3% and the viability, T/C (second compound 10 µM, first compound 10 µM) was 71.4%.

Molecule COc1cccc(OCCCN)c1-c1cc(Nc2cnc(C#N)cn2)n[nH]1 + COC1C(OC(N)=O)C(O)C(Oc2ccc3c(O)c(NC(=O)c4ccc(O)c(CC=C(C)C)c4)c(=O)oc3c2C)OC1(C)C has an IC50 (second compound 0.0316 µM) of 142 nM, an IC50 (second compound 0.1 µM) of 158 nM and an IC50 (second compound 0.316 µM) of 145 nM. The IC50 (second compound 1 µM) was 109 nM, the IC50 (second compound 3.16 µM) was 133 nM and the IC50 (second compound 10 µM) was 128 nM. The viability, T/C [25] was 87%, the viability, T/C [26] was 88.1% and the viability, T/C [1] was 70.1%. For the same molecule, the viability, T/C [2] was 61.4%, the viability, T/C [3] was 31.3% and the viability, T/C [4] was 17.4%. The viability, T/C [27] was 98.5%, the viability, T/C [28] was 82% and the viability, T/C [5] was 76.4%. For the same molecule, the viability, T/C [6] was 65.3%, the viability, T/C [7] was 30.9% and the viability, T/C [8] was 18.3%. It also gave a viability, T/C [29] of 94.6%, a viability, T/C [30] of 90.3% and a viability, T/C [9] of 72.3%. It also gave a viability, T/C [10] of 62%, a viability, T/C [11] of 31.7% and a viability, T/C [12] of 19.1%. For the same molecule, the viability, T/C [31] was 105%, the viability, T/C [32] was 82.1% and the viability, T/C [13] was 72.6%. It also gave a viability, T/C [14] of 52.9%, a viability, T/C [15] of 31.8% and a viability, T/C [16] of 16.4%. It also gave a viability, T/C [33] of 102%, a viability, T/C [34] of 85.6% and a viability, T/C [17] of 73.6%. The viability, T/C [18] was 59.1%, the viability, T/C [19] was 30.9% and the viability, T/C [20] was 18.2%. For the same molecule, the viability, T/C [35] was 103%, the viability, T/C [36] was 86.8% and the viability, T/C [21] was 77%. For the same molecule, the viability, T/C [22] was 56.4%, the viability, T/C [23] was 30.5% and the viability, T/C [24] was 17.5%.

With Cn1ncnc1[C@H]1c2n[nH]c(=O)c3cc(F)cc(c23)N[C@@H]1c1ccc(F)cc1 + COC1C(OC(N)=O)C(O)C(Oc2ccc3c(O)c(NC(=O)c4ccc(O)c(CC=C(C)C)c4)c(=O)oc3c2C)OC1(C)C the IC50 (second compound 0.0316 µM) was over 100 nM, the IC50 (second compound 0.1 µM) was over 100 nM and the IC50 (second compound 0.316 µM) was over 100 nM. The IC50 (second compound 1 µM) was over 100 nM, the IC50 (second compound 3.16 µM) was over 100 nM and the IC50 (second compound 10 µM) was over 100 nM. It also gave a viability, T/C (second compound 0.0316 µM, first compound 0.000316 µM) of 110%, a viability, T/C (second compound 0.0316 µM, first compound 0.001 µM) of 95.8% and a viability, T/C [25] of 102%. The viability, T/C [26] was 99.8%, the viability, T/C [1] was 99% and the viability, T/C [2] was 95.4%. It also gave a viability, T/C (second compound 0.1 µM, first compound 0.000316 µM) of 110%, a viability, T/C (second compound 0.1 µM, first compound 0.001 µM) of 108% and a viability, T/C [27] of 109%. It also gave a viability, T/C [28] of 101%, a viability, T/C [5] of 99.4% and a viability, T/C [6] of 91.1%. It also gave a viability, T/C (second compound 0.316 µM, first compound 0.000316 µM) of 104%, a viability, T/C (second compound 0.316 µM, first compound 0.001 µM) of 102% and a viability, T/C [29] of 103%. For the same molecule, the viability, T/C [30] was 102%, the viability, T/C [9] was 94.1% and the viability, T/C [10] was 91.1%. For the same molecule, the viability, T/C (second compound 1 µM, first compound 0.000316 µM) was 108%, the viability, T/C (second compound 1 µM, first compound 0.001 µM) was 97.1% and the viability, T/C [31] was 103%. It also gave a viability, T/C [32] of 94.2%, a viability, T/C [13] of 99.1% and a viability, T/C [14] of 99%. It also gave a viability, T/C (second compound 3.16 µM, first compound 0.000316 µM) of 101%, a viability, T/C (second compound 3.16 µM, first compound 0.001 µM) of 99.6% and a viability, T/C [33] of 102%. For the same molecule, the viability, T/C [34] was 102%, the viability, T/C [17] was 96.5% and the viability, T/C [18] was 93.5%. The viability, T/C (second compound 10 µM, first compound 0.000316 µM) was 106%, the viability, T/C (second compound 10 µM, first compound 0.001 µM) was 93.3% and the viability, T/C [35] was 108%. The viability, T/C [36] was 96%, the viability, T/C [21] was 104% and the viability, T/C [22] was 91%.
